The source of these data is PMC7247561, “Characterization of ABC Transporters in EpiAirway™, a Cellular Model of Normal Human Bronchial Epithelium” (International Journal of Molecular Sciences, 2020).

Series [1] has as its system MDR1. Kind of series: MDR1 activity, bidirectional transport of Rhodamine 123 in EpiAirway. It is filed as in vitro ADME, human.
Series [2] deals with T1, BCRP (Homo sapiens, UniProt Q9UNQ0).
T1 sequence (Q9UNQ0 1-655): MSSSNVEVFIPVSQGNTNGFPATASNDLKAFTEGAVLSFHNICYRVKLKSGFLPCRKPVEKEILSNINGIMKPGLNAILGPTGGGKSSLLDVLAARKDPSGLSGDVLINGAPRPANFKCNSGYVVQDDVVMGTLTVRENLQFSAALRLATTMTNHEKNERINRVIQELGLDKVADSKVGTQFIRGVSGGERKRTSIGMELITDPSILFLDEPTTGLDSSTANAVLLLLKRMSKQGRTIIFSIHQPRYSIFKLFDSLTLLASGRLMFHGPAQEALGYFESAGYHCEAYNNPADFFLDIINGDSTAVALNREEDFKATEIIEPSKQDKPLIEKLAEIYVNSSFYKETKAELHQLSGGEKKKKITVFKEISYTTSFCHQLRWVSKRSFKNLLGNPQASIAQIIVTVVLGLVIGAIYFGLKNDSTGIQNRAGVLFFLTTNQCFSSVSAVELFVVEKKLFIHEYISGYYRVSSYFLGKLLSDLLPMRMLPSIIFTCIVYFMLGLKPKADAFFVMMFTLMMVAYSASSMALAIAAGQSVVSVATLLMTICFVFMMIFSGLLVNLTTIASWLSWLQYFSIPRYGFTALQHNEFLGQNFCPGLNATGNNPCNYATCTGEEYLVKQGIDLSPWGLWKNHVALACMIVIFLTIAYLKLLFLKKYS
Procedure: (§2) The activity of ABC transporters was assessed by measuring the apical-to-basolateral (AB) and basolateral-to-apical (BA) fluxes of specific substrates. To this aim, cell monolayers were washed twice in HBSS and equilibrated for 30 min in the same solution (pH 7.4, 37 °C). […] Aliquots of the solution in the receiver chamber were collected after 0 min, 30 min, 60 min and 120 min and replaced with fresh HBSS. The fluxes were determined by measuring fluorescence with an EnSpire® Multimode Plate Reader (Perkin Elmer), or radioactivity with MicroBeta^2 liquid scintillation spectrometer. Data obtained were employed to calculate the apparent permeability coefficient (Papp). The integrity of cell monolayers, verified by measuring TEER before and after the experiment, was not modified by the experimental procedures.
(§3) Efflux ratio (ER) was calculated as the ratio between Papp measured for BA and AB fluxes, while uptake ratio (UR) was calculated as the ratio between Papp measured for AB and BA fluxes.

In series [3] the target is T1, BCRP. Kind of series: BCRP activity, bidirectional transport of 3H-mitoxantrone in EpiAirway. Conditions: 21 d at ALI, 10 µM Febuxostat.
Procedure: as §2, §3
The subject of another series is EpiAirway™. It is filed as in vitro ADME, human. Here is the method: (§1) In parallel, the paracellular and transcellular permeability of cultures to solutes was assessed by monitoring the apical-to-basolateral fluxes of ^14C-mannitol and ^3H-propranolol, respectively. In detail, cell monolayers were washed and incubated for 30 min in Hank’s Balanced Salt Solution (HBSS, pH 7.4, 37 °C); HBSS containing ^14C-mannitol (1 µCi/mL, corresponding to 20 µM) or ^3H-propranolol (3 µCi/mL; 10 µM) was then added to the apical side (donor chamber) of the monolayers.

A further series deals with Calu-3 cells. Kind of series: Paracellular and transcellular permeability (apical-to-basolateral Papp) in Calu-3. Type of series: in vitro ADME, human. The note with it: Calu-3, after 21 d at ALI, AB flux, 20 µM 14C-mannitol. Here is the method:
as §1

Series [4] has as its target T2, MDR1 (Homo sapiens, UniProt P08183).
T2 construct: MDR1 in Calu-3 cultures is expressed and operative on the apical membrane of the cells only after 21 d at ALI; endogenous in cells; host or cells: Calu-3 cells at air-liquid interface, 8 d or 21 d
Kind of series: MDR1 activity, bidirectional transport of Rhodamine 123 in Calu-3. Type of series: in vitro ADME. Conditions: 1 µM Rhodamine 123.
Procedure: as §2, §3

The target in a further series is T3, MDR1 (P-glycoprotein) (Homo sapiens, UniProt P08183).
T3 construct: MDR1 in Calu-3 cultures is expressed and operative on the apical membrane of the cells only after 21 d at ALI; endogenous in cells; host or cells: Calu-3 cells at air-liquid interface, 8 d or 21 d
T3 sequence (P08183 whole entry): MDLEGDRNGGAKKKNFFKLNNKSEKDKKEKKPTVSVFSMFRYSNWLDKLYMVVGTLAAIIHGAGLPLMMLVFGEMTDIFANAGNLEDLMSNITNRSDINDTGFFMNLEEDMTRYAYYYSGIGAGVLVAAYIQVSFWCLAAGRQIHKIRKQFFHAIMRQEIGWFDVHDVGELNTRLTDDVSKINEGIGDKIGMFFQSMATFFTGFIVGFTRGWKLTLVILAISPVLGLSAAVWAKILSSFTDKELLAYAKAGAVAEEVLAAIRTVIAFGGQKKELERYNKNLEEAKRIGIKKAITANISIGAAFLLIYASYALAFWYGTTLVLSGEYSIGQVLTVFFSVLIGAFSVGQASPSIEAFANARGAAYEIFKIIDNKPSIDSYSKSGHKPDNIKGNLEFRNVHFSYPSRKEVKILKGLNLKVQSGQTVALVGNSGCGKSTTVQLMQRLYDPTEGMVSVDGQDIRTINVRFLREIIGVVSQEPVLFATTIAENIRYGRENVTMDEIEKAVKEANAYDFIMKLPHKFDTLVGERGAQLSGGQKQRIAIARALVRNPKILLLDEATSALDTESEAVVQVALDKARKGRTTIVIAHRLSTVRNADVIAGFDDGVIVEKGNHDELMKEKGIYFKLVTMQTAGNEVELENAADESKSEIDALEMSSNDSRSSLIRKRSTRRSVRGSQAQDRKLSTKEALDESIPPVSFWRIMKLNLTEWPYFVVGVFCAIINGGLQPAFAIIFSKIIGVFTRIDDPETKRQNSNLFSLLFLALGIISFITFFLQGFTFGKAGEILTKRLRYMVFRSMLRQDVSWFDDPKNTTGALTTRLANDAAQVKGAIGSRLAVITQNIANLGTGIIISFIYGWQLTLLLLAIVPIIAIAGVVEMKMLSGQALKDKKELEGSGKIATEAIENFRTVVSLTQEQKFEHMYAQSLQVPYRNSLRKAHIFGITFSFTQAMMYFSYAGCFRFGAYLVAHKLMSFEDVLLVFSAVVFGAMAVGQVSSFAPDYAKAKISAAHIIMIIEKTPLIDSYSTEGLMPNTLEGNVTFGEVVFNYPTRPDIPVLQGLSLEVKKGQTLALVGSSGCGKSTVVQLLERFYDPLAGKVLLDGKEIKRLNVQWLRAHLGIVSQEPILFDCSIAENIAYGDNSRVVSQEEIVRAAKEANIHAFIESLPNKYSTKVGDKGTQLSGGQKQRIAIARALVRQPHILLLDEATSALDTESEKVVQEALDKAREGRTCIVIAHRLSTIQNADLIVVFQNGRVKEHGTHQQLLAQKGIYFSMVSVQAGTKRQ
Described as above. It is filed as in vitro ADME. Conditions: human, Calu-3, 21 d at ALI.

Where two headings read alike, the source gives them in different places.

T2 sequence (P08183 whole entry): as above
Procedure for MDR1 (P-glycoprotein): as §2, §3

With `C/C=C/C[C@@H](C)C(=O)[C@H]1C(=O)N[C@@H](C(C)C)C(=O)N(C)CC(=O)N(C)[C@@H](CC(C)C)C(=O)N[C@@H](C(C)C)C(=O)N(C)[C@@H](CC(C)C)C(=O)N[C@@H](C)C(=O)N[C@H](C)C(=O)N(C)[C@@H](CC(C)C)C(=O)N(C)[C@@H](CC(C)C)C(=O)N(C)[C@@H](C(C)C)C(=O)N1C` [PSC833], the “effect of inhibitor on Rhodamine 123 fluxes” value in the series on MDR1 [1] (8 d and 21 d at ALI, 10 µM PSC833) was “lack of inhibition”.

As to `Cc1nc(-c2ccc(OCC(C)C)c(C#N)c2)sc1C(=O)O` [Febuxostat], the “effect of inhibitor on Papp for AB flux of 3H-mitoxantrone” value at BCRP [2] is given as “modest but significant decrease”. For the same compound, at BCRP [3], the “effect of inhibitor on BA flux of 3H-mitoxantrone” value was “remained almost unaffected” and the “effect of inhibitor on uptake ratio (UR) of 3H-mitoxantrone” value is “slight decrease”.

`CC(C)NCC(O)COc1cccc2ccccc12` (stereo not shown) [propranolol]: the “propranolol permeability (Papp), EpiAirway vs Calu-3” value with EpiAirway™ (human, 120 min, 10 µM, pH 7.4) is reported as “slightly higher than that of Calu-3 cells”.

As for `OC[C@@H](O)[C@@H](O)[C@H](O)[C@H](O)CO` [mannitol], the “mannitol permeability (Papp), 8 d vs 21 d of culture” value with EpiAirway™ was “no difference”. The “Papp for mannitol, 21 d vs 8 d of culture” value in the series with Calu-3 cells is listed as “decreased”.

For the compound `COC(=O)c1ccccc1-c1c2ccc(=N)cc-2oc2cc(N)ccc12` [Rhodamine 123], the “Papp for AB vs BA fluxes” value on MDR1 [4] (Calu-3, 8 d at ALI) is “comparable”. For the same compound, the “Papp for BA transport vs AB flux” value at MDR1 [4] (Calu-3, 21 d at ALI) is recorded as “hugely higher than that of AB flux”. Further, the efflux ratio at 120 min, 1 µM on MDR1 (P-glycoprotein) (pH 7.4, probe Rhodamine 123, with PSC833 10 µM, 1 µM Rhodamine 123, + 10 µM PSC833, read-out: efflux ratio (ER) in the presence of the inhibitor) was 2.8; on MDR1 (P-glycoprotein) (pH 7.4, probe Rhodamine 123, 1 µM Rhodamine 123, control (no inhibitor), read-out: efflux ratio (ER)), 7. Besides, the “AB vs BA fluxes” value in the series with MDR1 [1] (8 d and 21 d at ALI, 1 µM Rhodamine 123) is on record as “no differences”. Also, in the series with MDR1 [1] (Rhodamine 123 fluxes), the “values of Papp and ER” value is listed as “very low”.
